One assay deals with Eimeria tenella. The experiment in a line: Anticoccidial efficacy battery-cage study, E. tenella lesions and oocysts.
For another assay, the system named is Eimeria acervulina. The experiment in a line: Anticoccidial efficacy battery-cage study, E. acervulina lesions and oocysts.
In a further assay the test system is Eimeria maxima. In words: Anticoccidial efficacy battery-cage study, E. maxima lesions and oocysts.
Assay [1] can be described thus: 3-Oil screening trial, 35 days, cocci stress. The assay is classed as in vivo, Cobb 500 cockerels. Conditions: product in feed. The source says:
640 1-day-old Cobb 500 cockerels were wing banded, weighed and randomly assigned to pens on the day of delivery. Each pen was 3 feet wide by 2 feet long by 2 feet tall holding 10 birds each; density was 0.6 sq. ft. per bird. The pens were contained within two battery cages in a single barn, each with battery cage having 4 levels and 8 pens per level for a total of 32 pens per battery. The experimental period was 35 days divided into three (3) feeding stages, starter, grower and finisher. Bird weight, average daily gain (ADG), average daily feed intake (ADFI), feed to gain (FG) and Coccidiosis oocyte counts were determined at each period. This study was performed with a large number of treatments in order to screen a number of possible treatments for further future investigations. […]

[2] abbreviates: Day 20, Johnson and Reid 1970 scoring, five birds per cage.

Regarding `CC[C@@H](C(=O)[C@@H](C)[C@@H](O)[C@H](C)[C@@H]1O[C@@H]([C@@H](CC)C(=O)O)CC[C@@H]1C)[C@H]1O[C@]2(C=C[C@@H](O)[C@]3(CC[C@@](C)([C@H]4CC[C@](O)(CC)[C@H](C)O4)O3)O2)[C@H](C)C[C@@H]1C` [Salinomycin], the “Lesion Scores Eimeria tenella” value in the assay with Eimeria tenella (setting [2]) turned out to be 0.9b. For the same compound, the “Oocysts/Gram Eimeria tenella” value with Eimeria tenella (feces Day 19 to Day 20) worked out at 1843bc Oocysts/Gram. Also, the “Lesion Scores Eimeria acervulina” value in the assay on Eimeria acervulina (setting [2]) stood at 0.8 days. Further, in the assay with Eimeria acervulina (feces Day 19 to Day 20), the “Oocysts/Gram Eimeria acervulina” value was 18403cd Oocysts/Gram. For the same compound, the “Lesion Scores Eimeria maxima” value in the assay on Eimeria maxima (setting [2]) stood at 0.7 days. Further, the “Oocysts/Gram Eimeria maxima” value with Eimeria maxima (feces Day 19 to Day 20) is 212bc Oocysts/Gram.

With `O=CC=Cc1ccccc1` [cinnamaldehyde], the “Average bird weights at thirty-five (35) days” value in assay [1] was determined as 2180.2 grams.

The values above are taken from US20210260142A1, “COMPOSITIONS BASED ON DIETARY FIBERS AND ESSENTIAL OILS” (Ralco Nutrition, Inc., priority 2020, published 2021).
